From patent US20070032464A1, “Methods of treating cancers” (priority 2004, published 2007)

Columns and labels:
liver X receptor alpha = target: T1, liver X receptor alpha (Homo sapiens, UniProt Q13133); test: gene transactivation (luciferase reporter) assay in human embryonic kidney 293 cells, liver X receptor alpha; format: cell-based; conditions: 1 to 10 μM
T1 sequence (Q13133 1-447): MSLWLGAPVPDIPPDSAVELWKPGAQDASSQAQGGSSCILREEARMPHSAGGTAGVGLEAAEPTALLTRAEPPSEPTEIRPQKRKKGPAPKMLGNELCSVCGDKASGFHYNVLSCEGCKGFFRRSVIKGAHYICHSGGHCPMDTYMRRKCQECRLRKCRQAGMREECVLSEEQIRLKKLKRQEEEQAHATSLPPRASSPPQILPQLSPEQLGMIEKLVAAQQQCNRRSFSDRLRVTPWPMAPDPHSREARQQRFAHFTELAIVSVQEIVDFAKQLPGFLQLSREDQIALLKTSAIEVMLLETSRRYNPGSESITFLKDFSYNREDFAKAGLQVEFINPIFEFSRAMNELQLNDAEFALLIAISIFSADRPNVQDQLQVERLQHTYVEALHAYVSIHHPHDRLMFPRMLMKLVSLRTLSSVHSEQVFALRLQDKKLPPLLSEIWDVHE
T1 sequence (P19793 1-462 partner): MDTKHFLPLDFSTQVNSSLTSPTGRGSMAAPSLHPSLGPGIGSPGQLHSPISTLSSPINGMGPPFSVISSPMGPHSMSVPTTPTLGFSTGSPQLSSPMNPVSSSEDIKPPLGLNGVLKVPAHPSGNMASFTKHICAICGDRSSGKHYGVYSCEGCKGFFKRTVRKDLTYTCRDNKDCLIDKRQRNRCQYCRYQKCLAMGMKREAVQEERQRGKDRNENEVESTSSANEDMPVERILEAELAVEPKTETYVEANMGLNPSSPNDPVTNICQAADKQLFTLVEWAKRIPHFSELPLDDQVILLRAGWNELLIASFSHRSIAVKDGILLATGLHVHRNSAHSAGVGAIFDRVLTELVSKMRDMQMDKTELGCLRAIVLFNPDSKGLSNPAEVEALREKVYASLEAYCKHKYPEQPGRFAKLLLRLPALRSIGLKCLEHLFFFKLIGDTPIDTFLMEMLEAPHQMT
Description: (§1) See, e.g., Song, C. et al., Steroids, 2000, 65, 423-427.
(§2) Specifically, human embryonic kidney 293 cells were seeded into a 48-well culture plate at 10^5 cells per well in a Dulbecco's modified Eagle's medium (DMEM) supplemented with 10% fetal bovine serum. After incubation for 24 hours, the cells were transfected by the calcium phosphate coprecipitation method with 250 ng of a pGL3/UREluc reporter gene that consisted of three copies of AGGTCAagccAGGTCA fused to nucleotides −56 to +109 of the human c-fos promoter in front of the firefly luciferase gene in the plasmid basic pGL3 (Promega, Madison, Wis.), 40 ng pSG5/hRXRα, 40 ng pSG5/rUR or CMX/hliver X receptorα, 10 ng pSG5/hGrip1, 0.4 ng CMV/R-luc (transfection normalization reporter, Promega) and 250 ng carrier DNA per well. […]
(§3) After incubation for another 12 to 24 hours, the cells were washed with phosphate buffer saline and then refed with DMEM supplemented with 4% delipidated fetal bovine serum. […] After incubation for another 24 to 48 hours, the cells were harvested and the luciferase activity was measured with a commercial kit (Promega Dual luciferase II) on a Monolight luminometer (Becton Dickenson, Mountain View, Calif.).

[1] = target: T2, liver X receptor beta (i.e., UR) (Rattus norvegicus, UniProt Q62755); test: gene transactivation (luciferase reporter) assay in human embryonic kidney 293 cells, liver X receptor beta (UR); format: cell-based; conditions: 1 to 10 μM
T2 sequence (Q62755 1-446): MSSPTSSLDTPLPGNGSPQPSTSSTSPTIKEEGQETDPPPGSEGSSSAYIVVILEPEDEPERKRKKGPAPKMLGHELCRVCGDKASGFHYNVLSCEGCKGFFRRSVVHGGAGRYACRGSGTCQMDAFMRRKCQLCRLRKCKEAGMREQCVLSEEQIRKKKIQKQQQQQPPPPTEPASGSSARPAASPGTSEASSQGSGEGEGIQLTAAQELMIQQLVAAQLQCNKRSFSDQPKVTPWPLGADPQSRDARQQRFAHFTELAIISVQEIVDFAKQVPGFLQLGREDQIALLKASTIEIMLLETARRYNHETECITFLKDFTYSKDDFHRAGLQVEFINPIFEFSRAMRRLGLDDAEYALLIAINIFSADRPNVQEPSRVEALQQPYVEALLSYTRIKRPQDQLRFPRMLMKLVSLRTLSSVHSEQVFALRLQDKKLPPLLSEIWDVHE
T2 sequence (P19793 1-462 partner): T1 sequence (P19793 1-462 partner)
Description: as §1, §2, §3

SMILES | liver X receptor alpha agonistic activity (liver X receptor alpha) | liver X receptor beta (UR) agonistic activity [1]
CON(C)C(=O)CC[C@@H](C)[C@H]1CC[C@H]2[C@@H]3C[C@H](O)[C@@H]4C[C@H](O)CC[C@]4(C)[C@H]3CC[C@]12C [hypocholamide, N-methyl-N-methoxy-3α,6α-dihydroxy-5β-cholanoic acid-24-amide] | unexpectedly potent agonists | unexpectedly potent agonists
CC(CCC(O)(C(F)(F)F)C(F)(F)F)C1CCC2C3CC(O)C4CC(O)CCC4(C)C3CCC12C (stereo not drawn) [hypocholaride, 3α,6α,24-trihydroxy-5β-24,24-di(trifluoromethyl)-cholestane] | unexpectedly potent agonists | unexpectedly potent agonists
